The structures appear in SMILES notation.

The text below walks through data of patent publication US20180362559A1, “BONE ACTIVE NITROGEN-CONTAINING BISPHOSPHONATES WITH A NEAR INFRARED FLUORESCENT LABEL” (University of Southern California, priority 2015, published 2018).

Assay [1] has as its system bone slice resorption. The assay is described as follows: bone slice resorption assay. The format is cell-based. The note with it: in vitro, qualitative ranking.
Assay [2] has as its system osteoclast (OC). Briefly: osteoclast (OC) inhibitory activity in vitro using mouse bone marrow cells (osteoclast culture). The format is cell-based. The note with it: for activity in osteoclast culture assay: in vitro, qualitative ranking; for OC numbers: mouse bone marrow cells, vehicle 239+/−17. As for the experimental part:
To determine if these AF-BP structural modifications improved the osteoclast (OC) inhibitory activity, these modifications were tested in vitro using mouse bone marrow cells.

As to `O=C(CCNC(=O)c1ccc(-c2c3ccc(=O)cc-3oc3cc(O)ccc23)c(C(=O)O)c1)NCC(O)C[n+]1cccc(CC(O)(P(=O)(O)O)P(=O)(O)O)c1` (centres unmarked) [Compound 13, 1-(3-(3-(3-carboxy-4-(6-hydroxy-1-oxo-3H-xanthen-9-yl)benzamido)propanamido)-2-hydroxypropyl)-3-(2-hydroxy-2,2-diphosphonoethyl)pyridin-1-ium], the “activity in bone slice resorption assay” value in assay [1] is recorded as “most active”. In addition, the “activity in osteoclast culture assay” value in assay [2] is given as “most active”.
Consider `O=C(CCNC(=O)c1ccc(C(=O)O)c(-c2c3ccc(=O)cc-3oc3cc(O)ccc23)c1)NCC(O)C[n+]1cccc(CC(O)(P(=O)(O)O)P(=O)(O)O)c1` (centres unmarked) [Compound 14, 1-(3-(3-(4-carboxy-3-(6-hydroxy-3-oxo-3H-xanthen-9-yl)benzamido)propanamido)-2-hydroxypropyl)-3-(2-hydroxy-2,2-diphosphonoethyl)pyridin-1-ium], for which the “activity in bone slice resorption assay” value in assay [1] is reported as “most active”. In addition, the “activity in osteoclast culture assay” value in assay [2] is “most active”.
For the compound `O=C(CCOCCOCCOCCOCCNC(=O)c1ccc(-c2c3ccc(=O)cc-3oc3cc(O)ccc23)c(C(=O)O)c1)NCC(O)C[n+]1cccc(CC(O)(P(=O)(O)O)P(=O)(O)O)c1` (centres unmarked) [Compound 21, 1-(1-(3-carboxy-4-(6-hydroxy-3-oxo-3H-xanthen-9-yl)phenyl)-20-hydroxy-1,17-dioxo-5,8,11,14-tetraoxa-2,18-diazahenicosan-21-yl)-3-(2-hydroxy-2,2-diphosphonoethyl)pyridin-1-ium], the “activity in bone slice resorption assay” value in assay [1] was “most active”. The “activity in osteoclast culture assay” value in assay [2] is on record as “most active”.
As to `O=P(O)(O)C(O)(Cc1cccnc1)P(=O)(O)O` [RIS, (1-hydroxy-2-pyridin-3-ylethane-1,1-diyl)bis(phosphonic acid), reference compound], the OC numbers in assay [2] (0.1 uM) was 214+/−37; in assay [2] (1 uM), 220+/−28; in assay [2] (10 uM), 143+/−21.
As for `O=C(CCOCCOCCOCCOCCNC(=O)c1ccc(C(=O)O)c(-c2c3ccc(=O)cc-3oc3cc(O)ccc23)c1)NCC(O)C[n+]1cccc(CC(O)(P(=O)(O)O)P(=O)(O)O)c1` (centres unmarked) [Compound 22], the “activity in bone slice resorption assay” value in assay [1] is “most active”. Also, in assay [2], the “activity in osteoclast culture assay” value is recorded as “most active”.
